In paper PMC10068595, “Novel asymmetrical azines appending 1,3,4-thiadiazole sulfonamide: synthesis, molecular structure analyses, in silico ADME, and cytotoxic effect” (RSC Advances, 2023):

Assays:
Format in all cases: cell-based
HepG-2 = experiment: MTT cytotoxicity assay, HepG-2; conditions: Homo sapiens, HepG2, hepatocellular carcinoma HepG-2, 48 h
Procedure: (§1) HepG2, MCF-7, WI 38, Caco-2 cancer cell lines were cultured in complete media of RPMI and DMEM, respectively, at 5% carbon dioxide and 37 °C following standard tissue culture work. The cells were grown in “10% fetal bovine serum (FBS) and 1% penicillin–streptomycin” in 96-multiwell plate. All the synthesized compounds were screened for their cytotoxicity using 20 μL of MTT solution (Promega, USA) for 48 h using untreated and treated cells with concentrations of (0.01, 0.1, 1, 10, and 100 μM) for 48 h.[41,42] The plate was cultured for 3 hours. The percentage of cell viability was calculated following this equation: […]. An ELISA microplate reader was used to measure the absorbance at 690 nm to calculate the viability versus concentration, and the IC50 value using GraphPad prism software.

Caco2 = experiment: MTT cytotoxicity assay, Caco2; conditions: Homo sapiens, Caco-2, colon cancer Caco2, 48 h
Procedure: as §1

MCF-7 = experiment: MTT cytotoxicity assay, MCF-7; conditions: Homo sapiens, MCF7, breast cancer MCF-7, 48 h
Procedure: as §1

WI 38 = experiment: MTT cytotoxicity assay, normal lung fibroblast WI 38; conditions: Homo sapiens, 48 h
Procedure: as §1

| SMILES | IC50 (HepG-2) [µM] | IC50 (Caco2) [µM] | IC50 (MCF-7) [µM] | IC50 (WI 38) [µM] |
| --- | --- | --- | --- | --- |
| CC(=NN=Cc1ccc(N(C)C)cc1)c1nn(-c2ccc(S(N)(=O)=O)cc2)c(=N)s1 [Compound 7b, 4-[5-(1-((4-(Dimethylamino)benzylidene)hydrazineylidene)ethyl)-2-imino-1,3,4-thiadiazol-3(2H)-yl]benzenesulfonamide] | 26.8 ± 1.5 | 33.6 ± 1.7 | 35.2 ± 1.6 | 49.8 ± 2.6 |
| CC(=NN=C1C(=O)N(CN(C)C)c2ccccc21)c1nn(-c2ccc(S(N)(=O)=O)cc2)c(=N)s1 [Compound 15a, 4-[5-(1-((1-((Dimethylamino)methyl)-2-oxoindolin-3-ylidene)hydrazineylidene)ethyl)-2-imino-1,3,4-thiadiazol-3(2H)-yl]benzenesulfonamide] | 6.54 ± 0.4 | 2.33 ± 0.1 | 4.34 ± 0.2 | 13.4 ± 0.7 |
| COc1cc(OC)c(C=NN=C(C)c2nn(-c3ccc(S(N)(=O)=O)cc3)c(=N)s2)c(OC)c1 [Compound 9, 4-[2-Imino-5-(1-((2,4,6-trimethoxybenzylidene)hydrazineylidene)ethyl)-1,3,4-thiadiazol-3(2H)-yl]benzenesulfonamide] | 12.2 ± 0.7 | 47.2 ± 2.3 | 7.21 ± 0.3 | 25.4 ± 1.3 |
| CC(=NN=Cc1ccc([N+](=O)[O-])cc1)c1nn(-c2ccc(S(N)(=O)=O)cc2)c(=N)s1 [Compound 7c, 4-[2-Imino-5-(1-((4-nitrobenzylidene)hydrazineylidene)ethyl)-1,3,4-thiadiazol-3(2H)-yl]benzenesulfonamide] | 3.04 ± 0.2 | 3.37 ± 0.2 | 9.59 ± 0.4 | 25.4 ± 1.9 |
| COc1ccc(C=NN=C(C)c2nn(-c3ccc(S(N)(=O)=O)cc3)c(=N)s2)cc1 [Compound 7a, 4-[2-Imino-5-(-1-((4-methoxybenzylidene)hydrazineylidene)ethyl)-1,3,4-thiadiazol-3(2H)-yl]benzenesulfonamide] | 4.17 ± 0.2 | 3.16 ± 0.2 | 31.5 ± 1.4 | 28.2 ± 1.5 |
| CC(=NN=C1C(=O)Nc2ccccc21)c1nn(-c2ccc(S(N)(=O)=O)cc2)c(=N)s1 [Compound 13, 4-[2-Imino-5-(1-((2-oxoindolin-3-ylidene)hydrazineylidene)ethyl)-1,3,4-thiadiazol-3(2H)-yl]benzenesulfonamide] | 1.76 ± 0.1 | 8.99 ± 0.4 | 17.7 ± 0.8 | 11.4 ± 0.6 |
| CC(=NN=Cc1ccco1)c1nn(-c2ccc(S(N)(=O)=O)cc2)c(=O)s1 [Compound 11, 4-[5-(1-((Furan-2-ylmethylene)hydrazineylidene)ethyl)-2-oxo-1,3,4-thiadiazol-3(2H)-yl]benzene sulfonamide] | 15 ± 0.8 | 8.55 ± 0.4 | 3.34 ± 0.2 | 24.5 ± 1.8 |
| CCN(CC)CN1C(=O)C(=NN=C(C)c2nn(-c3ccc(S(N)(=O)=O)cc3)c(=N)s2)c2ccccc21 [Compound 15b, 4-[5-(1-((1-((Diethylamino)methyl)-2-oxoindolin-3-ylidene)hydrazineylidene)ethyl)-2-imino-1,3,4-thiadiazol-3(2H)-yl)benzenesulfonamide] | 1.62 ± 0.1 | 0.78 ± 0.04 | 4.43 ± 0.2 | 16.8 ± 0.9 |
